Source: patent publication US20150239889A1, “PYRAZOLOPYRIMIDINE COMPOUND” (MITSUBISHI TANABE PHARMA CORPORATION, priority 2012, published 2015)

Key:
human HIF-PHD2 = target: T1, human HIF-PHD2 (Homo sapiens, UniProt Q9GZT9); experiment: HIF-PHD inhibition assay (fluorescence polarization), human HIF-PHD2; assay type: biochemical; conditions: 2-oxoglutaric acid 3.33 μmol/L
T1 construct: purchased CrystalGenomics Ltd
In short: (§1)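 A 5′-fluoresceinamide-labelled substrate with aminocaproic acid linker is used. Enzyme activity is computed by subtracting pre-enzyme polarization from post-enzyme polarization, expressed in mP.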

human HIF-PHD3 = target: T2, human HIF-PHD3 (Homo sapiens, UniProt Q9H6Z9); experiment: HIF-PHD inhibition assay (fluorescence polarization), human HIF-PHD3; assay type: biochemical; conditions: 2-oxoglutaric acid 166 μmol/L
T2 construct: purchased CrystalGenomics Ltd
T2 sequence (Q9H6Z9 whole entry): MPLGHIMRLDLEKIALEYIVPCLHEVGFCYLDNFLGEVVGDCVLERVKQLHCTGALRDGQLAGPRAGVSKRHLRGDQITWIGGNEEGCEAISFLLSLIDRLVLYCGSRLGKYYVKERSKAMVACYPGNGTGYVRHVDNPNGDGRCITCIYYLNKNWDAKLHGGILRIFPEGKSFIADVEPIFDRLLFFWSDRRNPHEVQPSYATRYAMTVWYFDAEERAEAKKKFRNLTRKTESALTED
In short: as §1

T1 sequence (Q9GZT9 2-426 limits assumed): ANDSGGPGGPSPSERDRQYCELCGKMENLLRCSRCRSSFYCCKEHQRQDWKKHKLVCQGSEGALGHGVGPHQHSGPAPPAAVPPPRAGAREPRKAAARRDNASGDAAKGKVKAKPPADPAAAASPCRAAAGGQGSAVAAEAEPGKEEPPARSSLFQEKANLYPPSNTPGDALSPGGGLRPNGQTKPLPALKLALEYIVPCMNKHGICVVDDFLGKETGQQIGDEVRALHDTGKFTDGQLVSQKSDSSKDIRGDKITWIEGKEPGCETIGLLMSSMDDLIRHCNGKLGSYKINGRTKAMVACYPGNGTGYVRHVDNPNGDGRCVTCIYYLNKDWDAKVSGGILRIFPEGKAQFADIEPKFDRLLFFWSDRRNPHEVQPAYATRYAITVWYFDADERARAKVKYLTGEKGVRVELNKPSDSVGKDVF

Row | IC50 (human HIF-PHD2) [nM] | IC50 (human HIF-PHD3) [nM] | Compound
1 | 14 | 490 | CC[C@@H](c1ccc(OC(F)(F)F)c(Cl)c1)n1ncc2nc(-n3cc(C(=O)O)cn3)nc(O)c21 [Example 353]
2 | 140 | 680 | CC(C)C(c1ccc(F)cc1)n1ncc2nc(-n3cc(C(=O)O)cn3)nc(O)c21 (centres unmarked) [Example 354]
3 | 53 | 710 | CC(C)C(c1ccc(C(F)(F)F)cc1)n1ncc2nc(-n3cc(C(=O)O)cn3)nc(O)c21 (centres unmarked) [Example 356]
4 | 45 | 700 | CC(C)C(c1ccc(F)c(F)c1)n1ncc2nc(-n3cc(C(=O)O)cn3)nc(O)c21 (centres unmarked) [Example 358]
5 | 64 | 770 | CC(C)C(c1cc(F)cc(F)c1)n1ncc2nc(-n3cc(C(=O)O)cn3)nc(O)c21 (centres unmarked) [Example 360]
6 | 100 | 1500 | CC(C)C(c1cccc(C(F)(F)F)c1)n1ncc2nc(-n3cc(C(=O)O)cn3)nc(O)c21 (centres unmarked) [Example 362]
7 | 39 | 780 | O=C(O)c1cnn(-c2nc(O)c3c(cnn3C(c3ccc(Cl)cc3)C3CC3)n2)c1 (centres unmarked) [Example 364]
8 | 120 | 540 | O=C(O)c1cnn(-c2nc(O)c3c(cnn3C(c3ccc(F)cc3)C3CC3)n2)c1 (centres unmarked) [Example 366]
9 | 72 | 410 | Cc1ccc(C(C2CC2)n2ncc3nc(-n4cc(C(=O)O)cn4)nc(O)c32)cc1 (centres unmarked) [Example 368]
10 | 56 | 380 | O=C(O)c1cnn(-c2nc(O)c3c(cnn3C(c3ccc(F)c(Cl)c3)C3CC3)n2)c1 (centres unmarked) [Example 370]
11 | 45 | 720 | O=C(O)c1cnn(-c2nc(O)c3c(cnn3C(c3cc(F)cc(F)c3)C3CC3)n2)c1 (centres unmarked) [Example 372]
12 | 51 | 630 | O=C(O)c1cnn(-c2nc(O)c3c(cnn3C(c3cccc(Cl)c3)C3CC3)n2)c1 (centres unmarked) [Example 374]
13 | 72 | 770 | Cc1cc(C(C2CC2)n2ncc3nc(-n4cc(C(=O)O)cn4)nc(O)c32)ccc1F (centres unmarked) [Example 376]
14 | 15 | 410 | C[C@@H](C1CCC(C)(C)CC1)n1ncc2nc(-n3cc(C(=O)O)cn3)nc(O)c21 [Example 382]
15 | 110 | 570 | C[C@H](C1CCC(C)(C)CC1)n1ncc2nc(-n3cc(C(=O)O)cn3)nc(O)c21 [Example 383]
16 | 60 | 500 | C[C@H]1CC[C@H](n2ncc3nc(-n4cc(C(=O)O)cn4)nc(O)c32)CC1 [Example 384]
17 | 130 | 380 | C[C@H]1CC[C@@H](n2ncc3nc(-n4cc(C(=O)O)cn4)nc(O)c32)CC1 [Example 385]
18 | 38 | 840 | CC1(C)CCC(n2ncc3nc(-n4cc(C(=O)O)cn4)nc(O)c32)CC1 [Example 386]
19 | 30 | 780 | CC1(C)CC(n2ncc3nc(-n4cc(C(=O)O)cn4)nc(O)c32)CC(C)(C)C1 [Example 387]
20 | 47 | 510 | CC[C@H]1CC[C@H](n2ncc3nc(-n4cc(C(=O)O)cn4)nc(O)c32)CC1 [Example 388]
21 | 76 | 790 | CC(C)[C@H]1CC[C@H](n2ncc3nc(-n4cc(C(=O)O)cn4)nc(O)c32)CC1 [Example 389]
22 | 28 | 660 | CC(C)[C@H]1CC[C@@H](n2ncc3nc(-n4cc(C(=O)O)cn4)nc(O)c32)CC1 [Example 390]

Row | IC50 (human HIF-PHD2) [nM] | IC50 (human HIF-PHD3) [nM] | Compound
23 | 72 | 1100 | CC(C)(C)[C@H]1CC[C@@H](n2ncc3nc(-n4cc(C(=O)O)cn4)nc(O)c32)CC1 [Example 391]
24 | 42 | 1300 | O=C(O)c1cnn(-c2nc(O)c3c(cnn3C3CCC(F)(F)CC3)n2)c1 [Example 392]
25 | 41 | 310 | O=C(O)c1cnn(-c2nc(O)c3c(cnn3C3CCCCCC3)n2)c1 [Example 393]
26 | 33 | 420 | O=C(O)c1cnn(-c2nc(O)c3c(cnn3C3CCCCCCC3)n2)c1 [Example 394]
27 | 64 | 430 | O=C(O)c1cnn(-c2nc(O)c3c(cnn3C3Cc4ccccc4C3)n2)c1 [Example 395]
28 | 47 | 340 | O=C(O)c1cnn(-c2nc(O)c3c(cnn3[C@@H]3CCc4ccccc43)n2)c1 [Example 396]
29 | 46 | 720 | O=C(O)c1cnn(-c2nc(O)c3c(cnn3[C@H]3CCc4ccccc43)n2)c1 [Example 397]
30 | 52 | 1400 | CC1CCCC(n2ncc3nc(-n4cc(C(=O)O)cn4)nc(O)c32)C1 (centres unmarked) [Example 398]
31 | 23 | 600 | CC1CCCC(n2ncc3nc(-n4cc(C(=O)O)cn4)nc(O)c32)C1 (centres unmarked) [Example 400]
32 | 24 | 710 | C[C@@H]1C[C@H](C)C[C@@H](n2ncc3nc(-n4cc(C(=O)O)cn4)nc(O)c32)C1 [Example 402]
33 | 140 | 940 | CC(C)[C@@H]1CC[C@@H](C)C[C@@H]1n1ncc2nc(-n3cc(C(=O)O)cn3)nc(O)c21 [Example 403]
34 | 81 | 840 | CC(C)[C@H]1CC[C@H](C)C[C@H]1n1ncc2nc(-n3cc(C(=O)O)cn3)nc(O)c21 [Example 404]
35 | 110 | 460 | CC(C)[C@H]1CC[C@H](C)[C@H](n2ncc3nc(-n4cc(C(=O)O)cn4)nc(O)c32)C1 [Example 405]
36 | 170 | 680 | CC(C)[C@@H]1CC[C@@H](C)[C@@H](n2ncc3nc(-n4cc(C(=O)O)cn4)nc(O)c32)C1 [Example 406]
37 | 37 | 460 | CC1CC(n2ncc3nc(-n4cc(C(=O)O)cn4)nc(O)c32)CC(C)(C)C1 (centres unmarked) [Example 407]
38 | 49 | 420 | CC1CC(n2ncc3nc(-n4cc(C(=O)O)cn4)nc(O)c32)CC(C)(C)C1 (centres unmarked) [Example 409]
39 | 40 | 550 | CC1(C)CCCC(n2ncc3nc(-n4cc(C(=O)O)cn4)nc(O)c32)C1 (centres unmarked) [Example 411]
40 | 42 | 680 | CCC1CCCC(n2ncc3nc(-n4cc(C(=O)O)cn4)nc(O)c32)C1 (centres unmarked) [Example 413]
41 | 40 | 690 | CCC1CCCC(n2ncc3nc(-n4cc(C(=O)O)cn4)nc(O)c32)C1 (centres unmarked) [Example 415]
42 | 70 | 1300 | CC1(C)CCCC1n1ncc2nc(-n3cc(C(=O)O)cn3)nc(O)c21 (centres unmarked) [Example 417]
43 | 62 | 490 | CC1(C)CC(=O)N(c2ccc(Cn3ncc4nc(-n5cc(C(=O)O)cn5)nc(O)c43)cc2)C1 [Example 420]
44 | 38 | 420 | O=C(O)c1cnn(-c2nc(O)c3c(cnn3Cc3ccc(N4CCC(C(F)(F)F)CC4)cc3)n2)c1 [Example 422]

Row | IC50 (human HIF-PHD2) [nM] | IC50 (human HIF-PHD3) [nM] | Compound
45 | 15 | 140 | O=C(O)c1cnn(-c2nc(O)c3c(cnn3C[C@@H]3CCN(c4ccc(C(F)(F)F)cc4)C3)n2)c1 [Example 426]
46 | 25 | 310 | O=C(O)c1cnn(-c2nc(O)c3c(cnn3C[C@H]3CCN(c4ccc(C(F)(F)F)cc4)C3)n2)c1 [Example 427]
47 | 21 | 230 | O=C(O)c1cnn(-c2nc(O)c3c(cnn3C[C@H]3CCN(c4ccc(Cl)cc4)C3)n2)c1 [Example 428]
48 | 22 | 540 | O=C(O)c1cnn(-c2nc(O)c3c(cnn3C[C@H]3CCN(c4cccc(C(F)(F)F)c4)C3)n2)c1 [Example 429]
49 | 19 | 240 | O=C(O)c1cnn(-c2nc(O)c3c(cnn3C[C@H]3CCN(c4cccc(Cl)c4)C3)n2)c1 [Example 430]
50 | 17 | 280 | C[C@@H](C1CCN(c2ccc(C(F)(F)F)cc2)CC1)n1ncc2nc(-n3cc(C(=O)O)cn3)nc(O)c21 [Example 431]
51 | 17 | 270 | C[C@@H](C1CCN(c2ccc(Cl)cc2)CC1)n1ncc2nc(-n3cc(C(=O)O)cn3)nc(O)c21 [Example 432]
52 | 31 | 540 | C[C@@H](C1CCN(c2ccc(OC(F)(F)F)cc2)CC1)n1ncc2nc(-n3cc(C(=O)O)cn3)nc(O)c21 [Example 433]
53 | 28 | 420 | C[C@@H](C1CCN(c2cccc(C(F)(F)F)c2)CC1)n1ncc2nc(-n3cc(C(=O)O)cn3)nc(O)c21 [Example 434]
54 | 15 | 170 | C[C@@H](C1CCN(c2cccc(Cl)c2)CC1)n1ncc2nc(-n3cc(C(=O)O)cn3)nc(O)c21 [Example 435]
55 | 10 | 330 | O=C(O)c1cnn(-c2nc(O)c3c(cnn3C3CCN(c4ccc(C(F)(F)F)cc4)CC3)n2)c1 [Example 436]
56 | 2.5 | 180 | O=C(O)c1cnn(-c2nc(O)c3c(cnn3[C@H]3CCN(c4ccc(C(F)(F)F)cc4)C3)n2)c1 [Example 437]
57 | 13 | 140 | O=C(O)c1cnn(-c2nc(O)c3c(cnn3[C@H]3CCN(c4ccc(Cl)c(Cl)c4)C3)n2)c1 [Example 438]
58 | 60 | 430 | Cc1ccc([C@H](C)n2nc(F)c3nc(-n4cc(C(=O)O)cn4)nc(O)c32)cc1C [Example 441]
59 | 20 | 400 | Cc1nn(Cc2ccc3ccccc3c2)c2c(O)nc(-n3cc(C(=O)O)cn3)nc12 [Example 445]
60 | 62 | 1900 | Cc1nn([C@@H](C)c2ccc(F)cc2)c2c(O)nc(-n3cc(C(=O)O)cn3)nc12 [Example 448]
61 | > 300 | 1200 | Cc1nn([C@@H](C)c2cccc(F)c2)c2c(O)nc(-n3cc(C(=O)O)cn3)nc12 [Example 449]
62 | 64 | 580 | Cc1nn([C@@H](C)c2ccc(F)c(F)c2)c2c(O)nc(-n3cc(C(=O)O)cn3)nc12 [Example 450]
63 | 91 | 840 | Cc1nn([C@@H](C)c2ccc(F)cc2F)c2c(O)nc(-n3cc(C(=O)O)cn3)nc12 [Example 451]
64 | 110 | 1600 | Cc1nn([C@@H](C)c2ccc(F)cc2Cl)c2c(O)nc(-n3cc(C(=O)O)cn3)nc12 [Example 452]
